Legend:
[1] = Stability testing: storage in a closed container under air at 80° C., odevixibat content by HPLC; format: physicochemical; settings: for Odevixibat content (%): closed container under air at 80° C., HPLC
Protocol: Analyses were performed on an Agilent, Series 1100, equipped with an Agilent 1260 Infinity degasser. Column: Waters XSelcet CHS C18 (150×3 mm, 3.5 μm); Mobile phase A: 0.1% formic acid in water, mobile phase B: 0.1% formic acid in acetonitrile; Gradient 45% to 90% B; flow rate 0.425 mL/min; Acquisition time 35 minutes; Run time 42 minutes; Wave length: 283 nm; Column temperature 20° C. The Chromeleon Version 6.8 software was used.
Samples of amorphous odevixibat (purity ˜91%) and of crystal modification 1 of odevixibat (purity>99%; crystallinity 100%) were stored in a closed container under air at 80° C. The amount of odevixibat in the samples was determined by HPLC at the beginning of the experiment, and was again determined after 1, 2 and 4 weeks.

[2] = Dynamic vapour sorption (DVS) water uptake of crystal modification 1; format: physicochemical
Protocol: DVS measurements were performed with an SPS11-100n “Sorptions Prüfsystem” from ProUmid (formerly “Projekt Messtechnik”), August-Nagel-Str. 23, 89079 Ulm (Germany). About 20 mg of sample was used. Humidity change rates of 5% per hour were used. The sample was placed on an aluminum or platinum holder on top of a microbalance and allowed to equilibrate at 0% RH before starting the pre-defined humidity program: • (1) 5 h at 0% RH • (2) 0→95% RH (5%/h); 5 h at 95% RH • (3) 95→0% RH (5%/h); 5 h at 0% RH • (4) 0→95% RH (5%/h); 5 h at 95% RH • (5) 95→0% RH (5%/h); 5 h at 0% RH High-Performance Liquid Chromatography (HPLC) The water uptake of crystal modification 1 was measured using dynamic vapour sorption (DVS). […] After drying the sample at 0% RH and increasing the relative humidity, most of the water was taken back up to about 25% RH. This corresponds to a water content of about 3.5% (w/w). An additional 1.5% (w/w) of water was then taken up when the humidity was increased up to 95% RH. […] Crystal modification 1 therefore seems to require about 3.5% (w/w) of water, which corresponds to a sesquihydrate.

[3] = 0 weeks (beginning of the experiment)
[4] = after 4 weeks of storage at 80° C. under air

| Odevixibat content (%) [1, 3] | Odevixibat content (%) ([1]; 1 week) | Odevixibat content (%) ([1]; 2 weeks) | Odevixibat content (%) ([1]; 4 weeks) | decomposition [1, 4] | hygroscopicity ([2]; DVS, conclusion in words) | water content ([2]; after drying at 0% RH, water taken back up to about 25% RH) | maximum water uptake ([2]; at 95% RH, reversible) | water content ([2]; at about 30% relative humidity, based on the total crystal weight) | additional water uptake ([2]; humidity increased up to 95% RH (range 30-95% RH)) | change of purity [1, 4] | Structure (SMILES) |
| --- | --- | --- | --- | --- | --- | --- | --- | --- | --- | --- | --- |
| 91.1% | 90.9% | 91.04% | 90.8% | 0.3% | – | – | – | – | – | – | CCCCC1(CCCC)CN(c2ccccc2)c2cc(SC)c(OCC(=O)N[C@@H](C(=O)N[C@@H](CC)C(=O)O)c3ccc(O)cc3)cc2S(=O)(=O)N1 [Amorphous odevixibat, 1,1-dioxo-3,3-dibutyl-5-phenyl-7-methylthio-8-(N—{(R)-α-[N—((S)-1-carboxypropyl)carbamoyl]-4-hydroxybenzyl}carbamoylmethoxy)-2,3,4,5-tetrahydro-1,2,5-benzothiadiazepine, reference compound] |
| 99.13% | 99.15% | 99.18% | 99.24% | – | slightly hygroscopic | about 3.5 % (w/w) | about 5.0 % (w/w) | about 3.5 % (w/w) | 1.5 % (w/w) | had not changed | CCCCC1(CCCC)CN(c2ccccc2)c2cc(SC)c(OCC(=O)N[C@@H](C(=O)N[C@@H](CC)C(=O)O)c3ccc(O)cc3)cc2S(=O)(=O)N1 [crystal modification 1, 1,1-dioxo-3,3-dibutyl-5-phenyl-7-methylthio-8-(N—{(R)-α-[N—((S)-1-carboxypropyl)carbamoyl]-4-hydroxybenzyl}carbamoylmethoxy)-2,3,4,5-tetrahydro-1,2,5-benzothiadiazepine] |

— US12091394B2, “Crystal modifications of odevixibat” (Albireo AB, priority 2018, dated 2024)
